One assay deals with T1, GOX0716 (Gluconobacter oxydans, UniProt Q5FT03).
T1 construct: full-length in pET28a, whole E. coli LOBSTR-BL21 (DE3) cells; not purified; native N-terminus by primer MADHSI
Nature of the assay: HPLC of E-ascladiol formation by recombinant E. coli cells. The note with it: 10 µg/mL patulin; 500 µM NADPH; 20 mM MES pH 5; 30 °C; 24 h. Type of assay: cell-based, recombinant Escherichia coli.

In the next assay the target is T2, GOX1462 (Gluconobacter oxydans, UniProt Q5FQY5).
T2 construct: full-length in pET28a, whole E. coli LOBSTR-BL21 (DE3) cells; not purified (aggregated); native N-terminus by primer MQYRQLG
The assay is described as above. In kind it is cell-based, Escherichia coli. The note with it: 10 µg/mL patulin; 500 µM NADPH; 20 mM MES pH 5; 30 °C; 24 h.

A further assay deals with T3, GOX0525 (Gluconobacter oxydans, UniProt Q5FTJ3).
T3 construct: full-length, N-terminal His-tag (pET28a), E. coli LOBSTR-BL21 (DE3), Ni-NTA; about 29 kDa; native N-terminus by primer MTHRVAL
Nature of the assay: NADPH oxidation at […] nm, Michaelis-Menten fit. Type of assay: biochemical. The following applies: read-out: apparent KM; 250 µM NADPH; pH 6.0 (0.1 M Tris, 0.05 M MES, 0.05 M acetic acid); 25 °C.

The target of a further assay is T4, GOX1899 (Gluconobacter oxydans, UniProt Q5FPQ9).
T4 construct: full-length, N-terminal His-tag (pET28a), E. coli LOBSTR-BL21 (DE3), Ni-NTA; about 29 kDa; native N-terminus by primer MTTDNI
Nature of the assay: NADPH oxidation at […] nm, Michaelis-Menten fit. Type of assay: biochemical. The following applies: read-out: apparent KM; 250 µM NADPH; pH 6.0 (0.1 M Tris, 0.05 M MES, 0.05 M acetic acid); 25 °C.

The values below come from PMC9323132, “Characterization of Two Dehydrogenases from Gluconobacter oxydans Involved in the Transformation of Patulin to Ascladiol” (Toxins, 2022).

T1 sequence (Q5FT03 entry or part of it): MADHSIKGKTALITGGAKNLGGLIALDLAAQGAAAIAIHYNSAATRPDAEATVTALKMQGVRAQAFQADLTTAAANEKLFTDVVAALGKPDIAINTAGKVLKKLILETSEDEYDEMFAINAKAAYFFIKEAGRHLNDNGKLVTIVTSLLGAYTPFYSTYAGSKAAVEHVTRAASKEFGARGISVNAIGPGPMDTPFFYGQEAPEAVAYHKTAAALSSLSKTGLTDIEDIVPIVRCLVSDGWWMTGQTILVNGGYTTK
T2 sequence (Q5FQY5 entry or part of it): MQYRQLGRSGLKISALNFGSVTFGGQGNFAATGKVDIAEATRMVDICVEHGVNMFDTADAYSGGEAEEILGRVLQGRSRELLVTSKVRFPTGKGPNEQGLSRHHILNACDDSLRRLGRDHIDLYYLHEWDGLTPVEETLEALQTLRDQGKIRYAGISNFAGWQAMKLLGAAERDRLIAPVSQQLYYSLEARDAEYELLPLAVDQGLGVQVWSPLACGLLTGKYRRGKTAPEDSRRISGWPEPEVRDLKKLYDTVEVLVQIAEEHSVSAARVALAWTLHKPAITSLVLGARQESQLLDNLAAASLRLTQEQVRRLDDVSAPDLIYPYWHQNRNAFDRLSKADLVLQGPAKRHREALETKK
T4 sequence (Q5FPQ9 entry or part of it): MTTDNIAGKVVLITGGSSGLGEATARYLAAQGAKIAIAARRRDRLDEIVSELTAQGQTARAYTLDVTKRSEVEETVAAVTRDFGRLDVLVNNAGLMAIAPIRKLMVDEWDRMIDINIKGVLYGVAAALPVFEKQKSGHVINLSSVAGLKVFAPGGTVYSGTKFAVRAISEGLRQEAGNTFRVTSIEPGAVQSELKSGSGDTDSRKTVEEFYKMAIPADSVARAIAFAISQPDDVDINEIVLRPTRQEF
T3 sequence (Q5FTJ3 entry or part of it): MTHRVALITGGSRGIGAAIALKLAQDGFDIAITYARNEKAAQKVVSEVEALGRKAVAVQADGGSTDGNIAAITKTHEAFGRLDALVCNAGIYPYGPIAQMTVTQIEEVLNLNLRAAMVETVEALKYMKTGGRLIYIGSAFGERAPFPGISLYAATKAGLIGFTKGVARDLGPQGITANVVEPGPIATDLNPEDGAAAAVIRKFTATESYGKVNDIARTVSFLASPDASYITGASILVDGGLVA

Broadly, the Km is the concentration of substrate that gives half-maximal velocity. Turning to `O=C1C=C2C(=CCOC2O)O1` (stereo not shown) [patulin, 4-hydroxy-4H-furo [3,2-c]pyran-2(6H)-one], the “HPLC of E-ascladiol formation by recombinant E. coli cells” value is “capable of producing E-ascladiol were those containing GOX0525, GOX1899, GOX1462 and GOX0716” at GOX0716; “capable of producing E-ascladiol were those containing GOX0525, GOX1899, GOX1462 and GOX0716” on GOX1462. The Km on GOX0525 is 8.64 ± 0.89 mM; at GOX1899, 7.26 ± 0.54 mM.
